According to US20120301551A1, “COMPOUNDS AND COMPOSITIONS FOR TREATING NEURONAL DEATH OR NEUROLOGICAL DYSFUNCTION” (Neurotech Pharmaceuticals Co., Ltd., priority 2005, published 2012):
Entries after “also recorded” stand apart in the source; their conditions may differ.

Assays:
[1] = system: mixed cortical cell cultures containing neurons and glia; assay: Fe2+-induced free radical neurotoxicity in mixed cortical cell cultures (LDH release); assay type: cell-based, mouse; conditions: for Fe^2+-induced free radical neurotoxicity, effect in words: 50 μM Fe^2+, 24 hr, 2-Hydroxy-TTBA or 2-Hydroxy-TPEA at doses as low as 0.3 μM, vitamin E at higher doses, Li^+ 10 mM (legend 5 mM); for Fe^2+-induced neuronal death (oxidative stress), effect in words: FIG. 5A: 30 μM Fe^2+, 24 h, 1 μM 2-hydroxy TTBA (submicromolar), 5 mM Li^+; for IC50: Mus musculus, Neuron, 50 μM FeCl2, neuronal death 24 hr later (LDH), read-out: IC50 (50% protection against Fe^2+-induced free radical neurotoxicity)
Description: (§1) Mouse cortical cell cultures (DIV 11-15) were exposed to 50 μM Fe^2+ or 10 mM BSO, alone or with inclusion of 5 mM Li^+. Neuronal death was analyzed 24 hr later by measuring levels of LDH released into the bathing medium, mean±SEM (n=9-12 culture wells per condition).
Mouse cortical cell cultures (DIV 11-15) were exposed to 30 μM Fe^2+ or 10 mM BSO, alone or in the presence of 1 μM 2-hydroxy TTBA, 10-100 μM vitamin E, or 5 mM Li^+.
(§2) For mixed neuron-glia culture, mouse cerebral cortices were removed from brains of the 11-15 day-old-fetal mice (E11-15), gently triturated and plated on 24 well plates (2×10^5 cells/plate) precoated with 100 μg/ml poly-D-lysine and 4 pg/ml laminin. Cultures were maintained at 37° C. in a humidified 5% CO2 atmosphere.
After 7-8 days in vitro (DIV 7-8), 10 μM cytosine arabinofuranoside (Ara-C) was included to halt overgrowth of glia. The drug treatment was carried on DIV 11-15 cortical cell culture.
Oxidative stress was induced by exposing mixed cortical cell cultures containing neurons and glia (DIV 11-15) to 50 μM FeCl2, a hydroxyl radical-producing transition metal via a Fenton reaction, or 10 mM DL-buthionine-[S,R]-sulfoximine (BSO), a glutathione depleting agent.

[2] = system: mixed cortical cell cultures containing neurons and glia; assay: BSO-induced free radical neurotoxicity in mixed cortical cell cultures (LDH release); assay type: cell-based, mouse; conditions: for BSO-induced free radical neurotoxicity, effect in words: 10 mM BSO, 24 hr, 2-Hydroxy-TTBA or 2-Hydroxy-TPEA at doses as low as 0.3 μM, Li^+ 10 mM (legend 5 mM); for BSO-induced neuronal death (oxidative stress), effect in words: FIG. 5A: 10 mM BSO, 24 h, 1 μM 2-hydroxy TTBA (submicromolar), 5 mM Li^+
Description: Mouse cortical cell cultures (DIV 11-15) were exposed to 10 mM BSO, alone or with indicated doses of 2-Hydroxy-TTBA or 2-Hydroxy-TPEA. Neuronal death was analyzed 24 hr later by measuring levels of LDH released into the bathing medium, mean±SEM (n=9-12 culture wells per condition). *, Significant difference from BSO alone, p<0.05 using ANOVA and Student-Newman-Keuls test.
as §1
Mouse cortical cell cultures (DIV 11-15) were exposed to 30 μM Fe^2+ or 10 mM BSO, alone or in the presence of 1 μM 2-hydroxy TTBA, 10-100 μM vitamin E, or 5 mM Li^+. Neuronal death was analyzed 24 h later by measuring LDH efflux in the bathing media (mean±SEM, n=12). *, Significant difference from the relevant control (Fe^2+ or BSO alone), p<0.05 using ANOVA and Student-Newman-Keuls test.
as §2, with “atmosphere. Plating media consist of Eagles minimal essential media (MEM, Earles salts, supplied glutamine-free) supplemented with 5% horse serum, 5% fetal bovine serum, 26.5 mM bicarbonate, 2 mM glutamine, and 21 mM glucose.” for “atmosphere.”
After 7-8 days in vitro (DIV 7-8), 10 μM cytosine arabinofuranoside (Ara-C) was included to halt overgrowth of glia. The drug treatment was carried on DIV 11-15 cortical cell culture. Overall neuronal cell injury was assessed by measuring amount of lactate dehydrogenase (LDH) released into the bathing medium 24 hr after neurotoxic insults as previously described (Koh and Choi, J Neurosci Methods 20:83-90, 1987).
Oxidative stress was induced by exposing mixed cortical cell cultures containing neurons and glia (DIV 11-15) to 50 μM FeCl2, a hydroxyl radical-producing transition metal via a Fenton reaction, or 10 mM DL-buthionine-[S,R]-sulfoximine (BSO), a glutathione depleting agent. Widespread neuronal death was observed 24 hours later. […] Administration of vitamin E prevented Fe^2+-induced free radical neurotoxicity at higher doses. This implies that 2-Hydroxy-TTBA or 2-Hydroxy-TPEA is a potent neuroprotectant against oxidative stress.

[3] = system: cortical cell cultures containing neurons and glia; assay: cyclosporine A or calyculin A-induced neuronal cell apoptosis in cortical cell cultures; assay type: cell-based, mouse; conditions: 20 μM cyclosporine A, 24 hr; 100 μM Vitamin E, 1 μM 2-hydroxy-TTBA, 1 μM 2-hydroxy-TPEA
Description: Mouse cortical cell cultures (DIV 10-12) were exposed to 20 μM cyclosporine A or 10 nM calculin A, alone or with inclusion of 0.3-30 mM Li. Neuronal death was analyzed 24-28 hr later by measuring levels of LDH released into the bathing medium, mean±SEM (n=9-12 culture wells per condition).
Mouse cortical cell cultures (DIV 10-12) were exposed to 20 μM cyclosporine A, alone or with 100 μM Vitamin E, 1 μM 2-hydroxy-TTBA, or 1 μM 2-hydroxy-TPEA. Neuronal death was analyzed 24 hr later by measuring levels of LDH released into the bathing medium, mean±SEM (n=9-12 culture wells per condition).
Cortical cell cultures containing neurons and glia at 10-12 days in vitro (DIV 10-12) were exposed to 20 μM cyclosporine A (CsA) or 10 nM caliculin A (cal A). Neurons underwent widespread apoptosis 24 hr later as previously reported (McDonald et al., 1996; Ko et al., 2000). […] This implies that Li^+ and the neuroprotective drugs (vitamin E, trolox, BAS, CBAS, FBAS, TBAS, PBAS, MBAS, NPAA, NPPAA, 2-Hydroxy-TTBA, and 2-Hydroxy-TPEA) selectively prevent neuronal cell apoptosis and free radical-mediated necrosis, respectively.

Tg2576 transgenic mice = assay: brain Aβ42/Aβ40 levels in Tg2576 transgenic mice (ELISA); assay type: in vivo, mouse; conditions: 25 mg/kg/d for 8 months (9~17 months)
Description: 17 month-old Tg2576 transgenic mice were fed chow alone, or containing 25 mg/kg/day of chemical 01, for 8 months before being sacrificed (9˜17 months). The level of Aβ42 or Aβ40 protein was quantitatively analyzed by colorimetric sandwich ELISA kit (BIOSOURCE, Camarillo, Calif.) (mean±SEM, n=2).
17 month-old Tg2576 transgenic mice were fed chow alone (saline only), or containing 25 mg/kg/day of chemical—01, for 8 months before being sacrificed (9˜17 month). SDS-soluble/insoluble Aβ42 or Aβ40 levels were analyzed by colorimetric sandwich ELISA kit (BIOSOURCE, Camarillo, Calif.).

Structure (SMILES)	Fe^2+-induced free radical neurotoxicity, effect in words [1]	Fe^2+-induced neuronal death (oxidative stress), effect in words ([1]; listed as 2-hydroxy TTBA)	Fe^2+-induced neuronal death (oxidative stress), effect in words ([1]; listed as 2-hydroxy-TTBA)	IC50 [1] [nM]	neuroprotective effect against Fe^2+-induced oxidative neuronal death relative to vitamin E ([1]; higher than vitamin E) [times]	BSO-induced free radical neurotoxicity, effect in words [2]	BSO-induced neuronal death (oxidative stress), effect in words ([2]; listed as 2-hydroxy TTBA)	BSO-induced neuronal death (oxidative stress), effect in words ([2]; listed as 2-hydroxy-TTBA)	cyclosporine A-induced neuronal cell apoptosis, effect in words [3]	SDS-soluble/insoluble Aβ42 and Aβ40 levels, in words (Tg2576 transgenic mice)	SDS-soluble/insoluble Aβ42 and Aβ40 levels, in words (Tg2576 transgenic mice; listed as chemical—01)
O=C(O)c1cc(NCc2c(F)c(F)c(C(F)(F)F)c(F)c2F)ccc1O [2-Hydroxy-TTBA, 2-hydroxy-5-(2,3,5,6-tetrafluoro-4-trifluoromethyl-benzylamino)-benzoic acid]	nearly completely blocked	prevents oxidative stress	completely blocked	110	220	nearly completely blocked	prevents oxidative stress	completely blocked	not attenuated; also recorded: do not attenuate	–	–
O=C(O)c1cc(NCCc2ccc(C(F)(F)F)cc2)ccc1O [chemical 01, 2-Hydroxy-5-[2-(4-trifluoromethyl-phenyl)-ethylamino]-benzoic acid]	nearly completely blocked	–	–	99	–	nearly completely blocked	–	–	not attenuated; also recorded: do not attenuate	decreased	reduced
